Some test systems named below: LOX IMVI; HCC 2998; OVCAR-8; COLO 205; HCT-116; HT-29; RXF 393; A498; IGROV-1; OVCAR-4; SNB-19; SF-268; EKVX; MDA-MB-231; NCI-H522; UO-31; HOP-92; K562; DMS-273; TK-10.
Holding throughout (assay): DTP human tumour cell line panel, 48 h

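Cells were grown in 96-well plates and exposed to each compound for 48 hours at five concentrations; endpoints were interpolated linearly between bracketing concentrations, or set to the highest concentration if not reached. Abbreviation: GI50, concentration required for 50% inhibition of growth.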 Calls of active or inactive are those of the source. Rule as the data show it: active = GI50 up to about 1.1 µM and inactive = higher. Bounds are passed on as bounds.

In general, GI50 refers to the concentration at which growth is held to half of that of the control. As to `COc1ccc(N2C(=O)[C@H]3CC(C)c4c([nH]c5ccccc45)[C@H]3C2=O)cc1` (stereo not given in full), the GI50 in the assay on LOX IMVI was 4.6 µM (inactive); in the assay with HCC 2998 it was 3.65 µM (inactive); in the assay with OVCAR-8 it was 5.64 µM (inactive); in the assay on COLO 205 it was 2.5 µM (inactive); in the assay on HCT-116, 3.37 µM (inactive); with HT-29 it was 2.92 µM (inactive). In addition, the GI50 in the assay with RXF 393 was 1.53 µM (inactive); with A498, 8.15 µM (inactive); in the assay on IGROV-1, 4.41 µM (inactive); in the assay with OVCAR-4, 5.98 µM (inactive); in the assay with SNB-19 it was 5.66 µM (inactive); with SF-268, 10.3 µM (inactive). Besides, the GI50 with EKVX was 24 µM (inactive); in the assay with MDA-MB-231, 6.35 µM (inactive); in the assay with NCI-H522, 1.1 µM (active); with UO-31 it was 5.61 µM (inactive); with HOP-92 it was 4.65 µM (inactive); in the assay with K562 it was 1.15 µM (inactive). The GI50 in the assay with DMS-273 is 1.51 µM (inactive); in the assay on TK-10 it was 9.86 µM (inactive).

On to `COc1cc2ccc3c4cc(OC)c(OC)cc4c[n+](C)c3c2cc1O`, for which the GI50 in the assay on LOX IMVI was > 73.8 µM (inactive); with HCC 2998, > 100 µM (inactive); with OVCAR-8, 32.3 µM (inactive); in the assay with COLO 205, > 90.8 µM (inactive); in the assay with HCT-116, > 100 µM (inactive); with HT-29 it was > 100 µM (inactive). The GI50 with RXF 393 was > 100 µM (inactive); with A498 it was > 24.4 µM (inactive); in the assay with IGROV-1, > 100 µM (inactive); in the assay on OVCAR-4, > 81.8 µM (inactive); in the assay on SNB-19 it was 3.91 µM (inactive); with SF-268, 0.658 µM (active). Also, the GI50 in the assay with EKVX was > 100 µM (inactive); in the assay with NCI-H522 it was 8.97 µM (inactive); in the assay with UO-31 it was > 100 µM (inactive); with HOP-92, > 100 µM (inactive); in the assay on K562, > 83.4 µM (inactive); in the assay on DMS-273, 55.5 µM (inactive). Further, in the assay on TK-10, the GI50 is > 100 µM (inactive).

For the molecule `COS(=O)(=O)OCCC(NC(=O)OCc1ccccc1)C(=O)OCc1ccccc1` (stereo not given), the GI50 was > 100 µM (inactive) in the assay with LOX IMVI; 66.4 µM (inactive) in the assay with HCC 2998; > 100 µM (inactive) in the assay with OVCAR-8; > 100 µM (inactive) in the assay with COLO 205; > 100 µM (inactive) in the assay on HCT-116; 59.2 µM (inactive) in the assay on HT-29. The GI50 in the assay with A498, in the assay with IGROV-1, in the assay with OVCAR-4, with SNB-19, with SF-268 and with EKVX was > 100 µM (inactive) throughout. Besides, the GI50 with NCI-H522, with UO-31, with HOP-92, in the assay with K562, in the assay on DMS-273 and in the assay with TK-10 was > 100 µM (inactive) in each case.

`O=C(N/N=C/c1cccc(O)c1O)N/N=C/c1cccc(O)c1O`: the GI50 is 18.7 µM (inactive) with LOX IMVI; 16.6 µM (inactive) in the assay with OVCAR-8; > 100 µM (inactive) with COLO 205; 5.02 µM (inactive) in the assay with HCT-116; 44.8 µM (inactive) with HT-29; 19 µM (inactive) in the assay on RXF 393. Further, the GI50 was 32.1 µM (inactive) in the assay with A498; 48.1 µM (inactive) in the assay with IGROV-1; 28.2 µM (inactive) with OVCAR-4; 30.2 µM (inactive) in the assay with SNB-19; 5.93 µM (inactive) in the assay with SF-268; 20.5 µM (inactive) in the assay with EKVX. The GI50 with UO-31 was 6.52 µM (inactive); with HOP-92 it was 17.4 µM (inactive); in the assay on K562, 6.97 µM (inactive); in the assay with DMS-273 it was 22.9 µM (inactive); in the assay with TK-10 it was 29.4 µM (inactive).

Take `FC(F)(F)c1ccc(/C=N/C23CC4CC(CC(C4)C2)C3)cc1`: the GI50 with LOX IMVI, in the assay on HCC 2998, in the assay with OVCAR-8, in the assay with COLO 205, with HCT-116 and in the assay on HT-29 was > 100 µM (inactive) throughout. The GI50 with RXF 393, with A498, in the assay on IGROV-1, with OVCAR-4, with SNB-19 and in the assay on SF-268 was > 100 µM (inactive) throughout. The GI50 in the assay on EKVX, with NCI-H522, with UO-31, with HOP-92, in the assay on K562 and with DMS-273 was > 100 µM (inactive) in each case. In addition, the GI50 with TK-10 was > 100 µM (inactive).

Turning to `CCCCNC(=O)NNC(=O)c1cc(/C=C/c2cccc([N+](=O)[O-])c2)ncn1`, the GI50 was 34.2 µM (inactive) with LOX IMVI; > 100 µM (inactive) with HCC 2998; > 100 µM (inactive) with OVCAR-8; > 100 µM (inactive) in the assay on COLO 205; 20 µM (inactive) in the assay with HCT-116; > 100 µM (inactive) in the assay on HT-29. Also, the GI50 in the assay with RXF 393, with A498, in the assay with IGROV-1, in the assay with SNB-19, in the assay on SF-268 and in the assay on EKVX was > 100 µM (inactive) throughout. Moreover, the GI50 in the assay with NCI-H522, in the assay on UO-31, in the assay with HOP-92, in the assay on K562, with DMS-273 and in the assay with TK-10 was > 100 µM (inactive) in each case.

`CC(C)(C)C1CCC(=O)C(C(O)CC2CC(=O)N(c3ccccc3)C(=O)C2)C1` (stereo not given): the GI50 in the assay on LOX IMVI was 49.5 µM (inactive); in the assay on HCC 2998, > 100 µM (inactive); with OVCAR-8, > 100 µM (inactive); with COLO 205 it was > 100 µM (inactive); with HCT-116, > 100 µM (inactive); in the assay on HT-29, > 100 µM (inactive). The GI50 was > 100 µM (inactive) in the assay with RXF 393; > 100 µM (inactive) with A498; > 100 µM (inactive) with IGROV-1; > 100 µM (inactive) in the assay with OVCAR-4; > 100 µM (inactive) with SNB-19; 81.5 µM (inactive) in the assay on SF-268. For the same molecule, the GI50 is > 100 µM (inactive) in the assay with EKVX; 50.4 µM (inactive) in the assay with NCI-H522; > 100 µM (inactive) in the assay with UO-31; > 100 µM (inactive) in the assay on HOP-92; > 100 µM (inactive) in the assay with K562; > 100 µM (inactive) in the assay on DMS-273. Besides, the GI50 with TK-10 was > 100 µM (inactive).

For the origin of these results see ChEMBL document CHEMBL1201862, “PubChem BioAssay data set” (2004).
